How the values were obtained:
activated human C1 = assay: Test, Code 026 (C1 inhibitor); type: biochemical; settings: serial two-fold dilution assay; higher well number indicates higher activity
Text: (§1) An active inhibitor protects C2 from C1 and C4; (ii) Test, Code 035 (C3-C9 inhibitor) -- This test determines the ability of the late components of human complement (C3-C9) to lyse EAC 142 in the presence of appropriate dilutions of the test compound. An active inhibitor protects EAC 142 from lysis by human C3-C9; (iii) Test, Code 036 (C-Shunt inhibitor) -- In this test human erythrocytes rendered fragile are lysed in autologous serum via the shunt pathway activated by cobra venom factor in the presence of appropriate dilutions of the test compound. Inhibition of the shunt pathway results in failure of lysis; (iv) Forssman Vasculitis Test -- Here, the well known complement dependent lesion, Forssman vasculitis, is produced in guinea pigs by intradermal injection of rabbit anti-Forssman antiserum. […]

[1] = tested on: late components of human complement (C3-C9); assay: Test, Code 035 (C3-C9 inhibitor); type: biochemical; set-up: key: N=Negative; settings: serial two-fold dilution assay; lysis of EAC 142 by human C3-C9
Text: as §1

[2] = tested on: shunt pathway activated by cobra venom factor; assay: Test, Code 036 (C-Shunt inhibitor); type: cell-based; settings: serial two-fold dilution assay; fragile human erythrocytes in autologous serum
Text: as §1

Compound: O=C([O-])c1cc(NC(=O)c2cc(C(=O)Nc3cc(C(=O)[O-])cc(C(=O)[O-])c3)c(C(=O)Nc3cc(C(=O)[O-])cc(C(=O)[O-])c3)cc2C(=O)Nc2cc(C(=O)[O-])cc(C(=O)[O-])c2)cc(C(=O)[O-])c1.[Na+].[Na+].[Na+].[Na+].[Na+].[Na+].[Na+].[Na+] [5,5',5",5'"-[1,2,4,5-Benzenetetrayltetrakis(carbonylimino)]-tetraisophthalic acid octasodium salt]
- Cl 026 Wells (activated human C1): +7 Wells
- C-Late 035 Wells [1]: N
- Shunt Inhibition 036 Wells [2]: +3 Wells

Source: patent US4118585A, “Anionic benzene tetrakis carbonylimino isophthalic acid salts” (priority 1977, dated 1978)
